The supplement of paper PMC11061612

Legend:
AZD0156 = compound: CN(C)CCCOc1ccc(-c2ccc3ncc4c(c3c2)n(C2CCOCC2)c(=O)n4C)cn1 [AZD0156]; conditions: max 3 µM
Method in brief: (§1)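 Cancer cell lines were seeded in 1536-well plates in 7.5 μl DMEM/F12 or RPMI with 10% FBS, held 24 hours at 37°C and 5% CO2, then dosed for 72 hours (final DMSO typically 0.2%). Viability was read by CellTiter-Glo 2.0 luminescence and scaled between blank-well and DMSO-well means. The single-agent IC50 comes from dose responses fitted to a two-parameter logistic curve with a non-linear mixed effects model.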

Crizotinib = compound: C[C@@H](Oc1cc(-c2cnn(C3CCNCC3)c2)cnc1N)c1c(Cl)ccc(F)c1Cl [Crizotinib]; conditions: max 10 µM
Method in brief: as §1

AZD5991 = compound: Cc1c2c(nn1C)CSCc1cc(n(C)n1)CSc1cc(c3ccccc3c1)OCCCc1c(C(=O)O)n(C)c3c-2c(Cl)ccc13 [AZD5991]; conditions: max 1 µM
Method in brief: as §1

Trametinib = compound: CC(=O)Nc1cccc(-n2c(=O)n(C3CC3)c(=O)c3c(Nc4ccc(I)cc4F)n(C)c(=O)c(C)c32)c1 [Trametinib]; conditions: max 1 µM
Method in brief: as §1

AZD6738 = compound: C[C@@H]1COCCN1C2=NC(=NC(=C2)C3(CC3)[S@](=N)(=O)C)C4=C5C=CNC5=NC=C4 [AZD6738]; conditions: max 10 µM
Method in brief: as §1

AZD4320 = compound: CN(CC[C@H](CSC1=CC=CC=C1)NC2=C(C=C(C=C2)S(=O)(=O)NC(=O)C3=CC=C(C=C3)N4CCC(CC4)[C@H](C5=CC=CC=C5C6=CC=C(C=C6)Cl)O)S(=O)(=O)C(F)(F)F)CCO [AZD4320]; conditions: max 1 µM
Method in brief: as §1

Venetoclax = compound: CC1(C)CCC(CN2CCN(c3ccc(C(=O)NS(=O)(=O)c4ccc(NCC5CCOCC5)c([N+](=O)[O-])c4)c(Oc4cnc5[nH]ccc5c4)c3)CC2)=C(c2ccc(Cl)cc2)C1 [Venetoclax]; conditions: max 1 µM
Method in brief: as §1

Capivasertib = compound: C1CN(CCC1(C(=O)N[C@@H](CCO)C2=CC=C(C=C2)Cl)N)C3=NC=NC4=C3C=CN4 [Capivasertib]; conditions: max 10 µM
Method in brief: as §1

Taselisib = compound: Cc1nc(-c2cn3c(n2)-c2ccc(-c4cnn(C(C)(C)C(N)=O)c4)cc2OCC3)n(C(C)C)n1 [Taselisib]; conditions: max 10 µM
Method in brief: as §1

AZD7648 = compound: Cc1cc2ncnn2cc1Nc1ncc2c(n1)n(C1CCOCC1)c(=O)n2C [AZD7648]; conditions: max 10 µM
Method in brief: as §1

Savolitinib = compound: C[C@@H](c1ccc2nccn2c1)n1nnc2ncc(-c3cnn(C)c3)nc21 [Savolitinib]; conditions: max 1 µM
Method in brief: as §1

SN-38 = compound: CCc1c2c(nc3ccc(O)cc13)-c1cc3c(c(=O)n1C2)COC(=O)[C@]3(O)CC [SN-38]; conditions: max 0.3 µM
Method in brief: as §1

Palbociclib = compound: CC(=O)c1c(C)c2cnc(Nc3ccc(N4CCNCC4)cn3)nc2n(C2CCCC2)c1=O [Palbociclib]; conditions: max 10 µM
Method in brief: as §1

Gefitinib = compound: COc1cc2ncnc(Nc3ccc(F)c(Cl)c3)c2cc1OCCCN1CCOCC1 [Gefitinib]; conditions: max 10 µM
Method in brief: as §1

Dasatinib = compound: CC1=C(C(=CC=C1)Cl)NC(=O)C2=CN=C(S2)NC3=CC(=NC(=N3)C)N4CCN(CC4)CCO [Dasatinib]; conditions: max 2 µM
Method in brief: as §1

Selumetinib = compound: Cn1cnc2c(F)c(Nc3ccc(Br)cc3Cl)c(C(=O)NOCCO)cc21 [Selumetinib]; conditions: max 10 µM
Method in brief: as §1

Lapatinib = compound: CS(=O)(=O)CCNCc1ccc(-c2ccc3ncnc(Nc4ccc(OCc5cccc(F)c5)c(Cl)c4)c3c2)o1 [Lapatinib]; conditions: max 10 µM
Method in brief: as §1

AZD2811 = compound: CCN(CCO)CCCOc1ccc2c(Nc3cc(CC(=O)Nc4cccc(F)c4)[nH]n3)ncnc2c1 [AZD2811]; conditions: max 1 µM
Method in brief: as §1

AZD8186 = compound: C[C@@H](Nc1cc(F)cc(F)c1)c1cc(C(=O)N(C)C)cc2c(=O)cc(N3CCOCC3)oc12 [AZD8186]; conditions: max 3 µM
Method in brief: as §1

Doxorubicin = compound: COc1cccc2c1C(=O)c1c(O)c3c(c(O)c1C2=O)C[C@@](O)(C(=O)CO)C[C@@H]3O[C@H]1C[C@H](N)[C@H](O)[C@H](C)O1 [Doxorubicin]; conditions: max 1 µM
Method in brief: as §1

AZD5153 = compound: COc1nnc2ccc(N3CCC(c4ccc(OCCN5CCN(C)C(=O)[C@H]5C)cc4)CC3)nn12 [AZD5153]; conditions: max 1 µM
Method in brief: as §1

AZD1390 = compound: CC(C)n1c(=O)n(C)c2cnc3cc(F)c(-c4ccc(OCCCN5CCCCC5)nc4)cc3c21 [AZD1390]; conditions: max 0.3 µM
Method in brief: as §1

SG3199 = compound: CC1=CN2[C@@H](C1)C=NC3=CC(=C(C=C3C2=O)OC)OCCCCCOC4=C(C=C5C(=C4)N=C[C@@H]6CC(=CN6C5=O)C)OC [SG3199]; conditions: max 0.001 µM
Method in brief: as §1

AZD1775 = compound: C=CCn1c(=O)c2cnc(Nc3ccc(N4CCN(C)CC4)cc3)nc2n1-c1cccc(C(C)(C)O)n1 [AZD1775]; conditions: max 3 µM
Method in brief: as §1

Prexasertib = compound: COc1cccc(OCCCN)c1-c1cc(Nc2cnc(C#N)cn2)n[nH]1 [Prexasertib]; conditions: max 1 µM
Method in brief: as §1

Alisertib = compound: COc1cc(Nc2ncc3c(n2)-c2ccc(Cl)cc2C(c2c(F)cccc2OC)=NC3)ccc1C(=O)O [Alisertib]; conditions: max 10 µM
Method in brief: as §1

Olaparib = compound: O=C(c1cc(Cc2n[nH]c(=O)c3ccccc23)ccc1F)N1CCN(C(=O)C2CC2)CC1 [Olaparib]; conditions: max 10 µM
Method in brief: as §1

Row | Cell Line | IC50, cell viability 72 h (AZD0156) [µM] | IC50, cell viability 72 h (Crizotinib) [µM] | IC50, cell viability 72 h (AZD5991) [µM] | IC50, cell viability 72 h (Trametinib) [µM] | IC50, cell viability 72 h (AZD6738) [µM] | IC50, cell viability 72 h (AZD4320) [µM] | IC50, cell viability 72 h (Venetoclax) [µM] | IC50, cell viability 72 h (Capivasertib) [µM] | IC50, cell viability 72 h (Taselisib) [µM] | IC50, cell viability 72 h (AZD7648) [µM] | IC50, cell viability 72 h (Savolitinib) [µM] | IC50, cell viability 72 h (SN-38) [µM] | IC50, cell viability 72 h (Palbociclib) [µM] | IC50, cell viability 72 h (Gefitinib) [µM] | IC50, cell viability 72 h (Dasatinib) [µM] | IC50, cell viability 72 h (Selumetinib) [µM] | IC50, cell viability 72 h (Lapatinib) [µM] | IC50, cell viability 72 h (AZD2811) [µM] | IC50, cell viability 72 h (AZD8186) [µM] | IC50, cell viability 72 h (Doxorubicin) [µM] | IC50, cell viability 72 h (AZD5153) [µM] | IC50, cell viability 72 h (AZD1390) [µM] | IC50, cell viability 72 h (SG3199) [µM] | IC50, cell viability 72 h (AZD1775) [µM] | IC50, cell viability 72 h (Prexasertib) [µM] | IC50, cell viability 72 h (Alisertib) [µM] | IC50, cell viability 72 h (Olaparib) [µM]
1 | COR-L311 (Small Cell Lung Carcinoma) | > 3 | 2.97 | > 1 | > 1 | > 10 | 0.00192 | 0.208 | 3.02 | 1.61 | > 10 | > 1 | 0.00307 | > 10 | > 10 | > 2 | > 10 | > 10 | 0.0754 | > 3 | 0.685 | 0.175 | > 0.3 | > 0.001 | 0.91 | 0.107 | 1.51 | > 10
2 | GI-ME-N (Neuroblastoma) | > 3 | > 10 | > 1 | > 1 | > 10 | > 1 | > 1 | > 10 | > 10 | > 10 | > 1 | > 0.3 | > 10 | > 10 | > 2 | > 10 | > 10 | > 1 | > 3 | > 1 | > 1 | > 0.3 | > 0.001 | 2.22 | 0.731 | > 10 | > 10
3 | Hs-445 (Non-Cancerous) | > 3 | > 10 | 0.213 | > 1 | 2.09 | 0.224 | > 1 | 3.88 | 9.18 | > 10 | > 1 | 0.00333 | > 10 | > 10 | > 2 | > 10 | > 10 | > 1 | > 3 | 0.146 | > 1 | > 0.3 | > 0.001 | 0.134 | 0.0039 | > 10 | > 10
4 | JSC-1 (B-Cell Non-Hodgkin's Lymphoma) | > 3 | 6.19 | 0.0334 | 0.26 | 1.86 | > 1 | > 1 | 7.45 | > 10 | > 10 | > 1 | 0.00211 | 5.84 | > 10 | > 2 | 4.68 | > 10 | > 1 | > 3 | 0.12 | 0.0667 | > 0.3 | > 0.001 | 0.328 | 0.00524 | 7.11 | > 10
